Data reported in US20090011025A1, “Biotin-Amino Acid Conjugate Useful as a Hydrogelator and Hydrogel Prepared Therefrom” (POSTECH FOUNDATION, priority 2005, published 2009).

Legend:
[1] = Textures of the hydrogels/xerogels by scanning electron microscopy (SEM); assay type: physicochemical; settings: gel at MGC in distilled water, freeze-dried
Description: The textures of the hydrogels formed by the gelators prepared in the Examples were examined as follows, employing a scanning electron microscopy (SEM).
First, gelators 1 to 11 were each dissolved in 1 ml of distilled water in an amount ranging from 0.003 to 0.02 g to reach the corresponding MGC listed in Table 1, and the mixture was heated at 100° C. to form a hydrogel. The hydrogel was frozen at −78° C., and freeze-dried for 6 hours to obtain a xerogel.

[2] = Gelation capability of gelators, stable-to-inversion of container method (minimum gelation concentration, gel stability and clarity); assay type: physicochemical; parameters: key to minimum gelation concentration (MGC): —: no gel formed; settings: for stability of gel (time the gel lasted): aqueous media; for stability of gel (time the gel persisted): in each medium
Description: In order to examine the gelation capability of gelators 1 to 11, the degrees of gelation in various aqueous media were measured as follows, in accordance with the “stable-to-inversion of container” method (Menger, F. M. and Caran, K. L., J. Am. Chem. Soc. 2000, 122, 11679).
Specifically, 0.002 to 0.04 g of each gelator and 1 ml of an aqueous medium (distilled water, 0.9% aqueous NaCl solution, 0.01 M hydrochloric buffer (pH 2.0), 0.05 M phthalate buffer (pH 4.0), 0.08 M MOPSO buffer (pH 7.0) or 0.025 M sodium tetraborate buffer (pH 9.0)) were put into a sealed glass tube (5 mm i.d.), and the mixture was heated at 100° C. until a solution was obtained. The tube was then maintained at room temperature for 5 to 10 min.
Then, the minimum gelation concentration (MGC, wt %), i.e., the lowest concentration of a gelator at which it forms a hydrogel, of each gelator compound was determined, and the result is shown in Table 1.

[3] = target: streptavidin (Streptomyces avidinii, UniProt P22629); experiment: Influence of ligand-receptor interaction (streptavidin) on the gel state of a hydrogel, SEM; settings: 0.002 equivalent of streptavidin, after 1 hour
Description: The influence of ligand-receptor interaction on the gel state of hydrogels was examined as follows.
0.002 g of gelator 9 was added to 1 ml of distilled water, and the mixture was heated at 100° C. to form a hydrogel.

[4] = cited from earlier work
[5] = pH 2 (0.01 M hydrochloric buffer)
[6] = pH 9 (0.025 M sodium tetraborate buffer)

| SMILES | structure type of hydrogel (xerogel SEM image) [1] | melting point [°C] | clarity of gel [2] | minimum gelation concentration (MGC) ([2]; H2O/0.9% NaCl (aq.)) | stability of gel (time the gel lasted) [2] | minimum gelation concentration (MGC) [2, 5] | minimum gelation concentration (MGC) ([2]; pH 4 (0.05 M phthalate buffer)) | minimum gelation concentration (MGC) ([2]; pH 7 (0.08 M MOPSO buffer)) | minimum gelation concentration (MGC) [2, 6] | gel state after addition of streptavidin [3] | molecules of water immobilized by one molecule of gelator ([2]; at MGC in distilled water) | stability of gel (time the gel persisted) [2] | solubility in organic solvents ([4]; organic solvents) | solubility in water ([4]; water) |
| --- | --- | --- | --- | --- | --- | --- | --- | --- | --- | --- | --- | --- | --- | --- |
| CCCC[C@H](NC(=O)CCCC[C@@H]1SC[C@@H]2NC(=O)N[C@@H]21)C(=O)O [Gelator 9, N-biotinyl-L-norleucine] |  | 172 |  | 0.3 wt % |  | 0.2 wt % | 0.5 wt % | 1.2 wt % | 1.5 wt % | disrupted | 6,700 molecules of water |  |  |  |
| CCCCCC(NC(=O)CCCC[C@@H]1SC[C@@H]2NC(=O)N[C@@H]21)C(=O)O (stereo partly drawn) [Gelator 10, N-biotinyl-D,L-2-aminoenantic acid] |  |  |  | 0.8 wt % |  | 0.6 wt % | 1.0 wt % | 2.0 wt % | 4.0 wt % |  |  |  |  |  |
| O=C(CCCC[C@@H]1SC[C@@H]2NC(=O)N[C@@H]21)N[C@@H](Cc1ccccc1)C(=O)O [Gelator 1, N-biotinyl-L-phenylalanine] | fibrous structures | 205 | translucent to opaque | 2.0 wt % |  | 1.5 wt % | 2.0 wt % | 3.0 wt % | 4.0 wt % |  |  | about 6 months |  |  |
| CCCCCCC(NC(=O)CCCC[C@@H]1SC[C@@H]2NC(=O)N[C@@H]21)C(=O)O (mixture of isomers) [Gelator 11, N-biotinyl-D,L-2-aminocaprylic acid] |  | 198.5 |  | 0.6 wt % |  | 0.8 wt % | 0.8 wt % | 1.7 wt % | 3.5 wt % |  |  |  |  |  |
| O=C(O)CCCC[C@@H]1SC[C@@H]2NC(=O)N[C@@H]21 [biotin] |  |  |  |  |  |  |  |  |  |  |  |  | insolubility | 1.0-0.8 mmol/L |
| O=C(CCCC[C@@H]1SC[C@@H]2NC(=O)N[C@@H]21)N[C@@H](Cc1c[nH]c2ccccc12)C(=O)O [Gelator 7, N-biotinyl-L-tryptophan] |  | 160 to 161 |  | — |  | — | — | — | — |  |  |  |  |  |
| CSCC[C@H](NC(=O)CCCC[C@@H]1SC[C@@H]2NC(=O)N[C@@H]21)C(=O)O [Gelator 3, N-biotinyl-L-methionine] |  | 207 |  | 1.8 wt % |  | — | — | — | — |  |  |  |  |  |
| O=C(CCCC[C@@H]1SC[C@@H]2NC(=O)N[C@@H]21)N[C@@H](Cc1ccc(O)cc1)C(=O)O [Gelator 6, N-biotinyl-L-tyrosine] |  | 259 to 260 |  | — |  | — | — | — | — |  |  |  |  |  |

Now from value to compound, other results behind:

| structure type of hydrogel (xerogel SEM image) [1] | melting point [°C] | clarity of gel [2] | minimum gelation concentration (MGC) ([2]; H2O/0.9% NaCl (aq.)) | stability of gel (time the gel lasted) [2] | minimum gelation concentration (MGC) [2, 5] | minimum gelation concentration (MGC) ([2]; pH 4 (0.05 M phthalate buffer)) | minimum gelation concentration (MGC) ([2]; pH 7 (0.08 M MOPSO buffer)) | minimum gelation concentration (MGC) [2, 6] | SMILES | gel state after addition of streptavidin [3] | molecules of water immobilized by one molecule of gelator ([2]; at MGC in distilled water) | stability of gel (time the gel persisted) [2] | solubility in organic solvents ([4]; organic solvents) | solubility in water ([4]; water) |
| --- | --- | --- | --- | --- | --- | --- | --- | --- | --- | --- | --- | --- | --- | --- |
| lamellar structures | 215 to 216 | opaque | 1.4 wt % | about 1 week | 1.0 wt % | 1.4 wt % | 2.7 wt % | 4.0 wt % | CC(C)[C@H](NC(=O)CCCC[C@@H]1SC[C@@H]2NC(=O)N[C@@H]21)C(=O)O [Gelator 5, N-biotinyl-L-valine] |  |  |  |  |  |
| lamellar structures | 255 | opaque | 1.2 wt % | about 1 week | 0.9 wt % | 1.2 wt % | 2.5 wt % | 3.8 wt % | CCC[C@H](NC(=O)CCCC[C@@H]1SC[C@@H]2NC(=O)N[C@@H]21)C(=O)O [Gelator 8, N-biotinyl-L-norvaline] |  |  |  |  |  |
| fibrous structures | 209 to 210 | translucent to opaque | 1.6 wt % |  | 1.4 wt % | 1.8 wt % | 2.8 wt % | 3.6 wt % | CC(C)C[C@H](NC(=O)CCCC[C@@H]1SC[C@@H]2NC(=O)N[C@@H]21)C(=O)O [Gelator 2, N-biotinyl-L-leucine] |  |  | about 6 months |  |  |
| lamellar structures | 230 to 233 | opaque | 1.2 wt % | about 1 week | 1.0 wt % | 1.2 wt % | 2.7 wt % | 3.9 wt % | CC[C@H](C)[C@H](NC(=O)CCCC[C@@H]1SC[C@@H]2NC(=O)N[C@@H]21)C(=O)O [Gelator 4, N-biotinyl-L-isoleucine] |  |  |  |  |  |
